Read-outs that look alike come from different tables or passages of the source.
Tests used:
hMAO A = biological target: T1, hMAO A (Homo sapiens, UniProt P21397); assay: MAO A inhibition (fluorimetric kynuramine assay); format: biochemical; conditions: mean ± SEM, n = 3
T1 construct: purchased Sigma-Aldrich
T1 sequence (P21397 1-527): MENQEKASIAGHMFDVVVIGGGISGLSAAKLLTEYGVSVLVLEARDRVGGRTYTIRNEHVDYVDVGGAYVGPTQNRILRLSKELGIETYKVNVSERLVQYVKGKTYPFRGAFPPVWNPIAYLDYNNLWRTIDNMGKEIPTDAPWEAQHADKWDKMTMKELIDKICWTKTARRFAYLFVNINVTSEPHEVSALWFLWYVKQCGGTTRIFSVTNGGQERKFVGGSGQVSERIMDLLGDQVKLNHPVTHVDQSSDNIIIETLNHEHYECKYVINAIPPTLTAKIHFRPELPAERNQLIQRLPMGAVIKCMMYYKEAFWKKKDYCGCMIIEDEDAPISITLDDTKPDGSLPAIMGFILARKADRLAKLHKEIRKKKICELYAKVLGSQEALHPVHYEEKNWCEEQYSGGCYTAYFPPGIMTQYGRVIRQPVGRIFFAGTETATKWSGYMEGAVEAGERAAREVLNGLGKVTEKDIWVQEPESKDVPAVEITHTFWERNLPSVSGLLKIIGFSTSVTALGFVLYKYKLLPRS

[1] = biological target: T2, eeAChE (AChE from electric eel) (Electrophorus electricus, UniProt O42275); assay: biochemical; conditions: mean ± SEM, n = 3
T2 construct: purchased Sigma-Aldrich, Milan, Italy

MAO B [2] = biological target: T3, MAO B (Homo sapiens, UniProt P27338); assay: MAO B inhibition (fluorimetric kynuramine assay, inhibition kinetics); format: biochemical; conditions: mean ± SEM, n = 3
T3 construct: purchased Sigma-Aldrich
T3 sequence (P27338 1-520): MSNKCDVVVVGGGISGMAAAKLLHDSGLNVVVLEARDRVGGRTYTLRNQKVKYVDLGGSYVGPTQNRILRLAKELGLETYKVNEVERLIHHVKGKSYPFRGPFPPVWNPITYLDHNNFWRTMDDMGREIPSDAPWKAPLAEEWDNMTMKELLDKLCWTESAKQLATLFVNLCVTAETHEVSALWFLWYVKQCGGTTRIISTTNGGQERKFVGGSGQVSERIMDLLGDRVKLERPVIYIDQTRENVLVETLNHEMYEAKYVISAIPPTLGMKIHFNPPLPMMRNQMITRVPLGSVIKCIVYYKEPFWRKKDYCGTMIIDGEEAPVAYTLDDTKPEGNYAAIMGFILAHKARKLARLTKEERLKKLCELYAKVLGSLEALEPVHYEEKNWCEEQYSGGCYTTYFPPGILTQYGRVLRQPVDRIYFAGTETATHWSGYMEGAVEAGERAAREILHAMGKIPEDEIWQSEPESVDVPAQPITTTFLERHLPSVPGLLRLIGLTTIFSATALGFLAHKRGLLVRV

Aβ40 = biological target: T4, Aβ40 (Homo sapiens, UniProt P05067); assay: Inhibition of self-induced Aβ40 aggregation (ThT fluorescence, HFIP); format: biochemical; conditions: Aβ40 30 μM, mean ± SEM, n = 3; for inhibition at 100 µM: read-out: Aβ40 aggr % inhibition; for IC50: 2 h at 25 °C, PBS 2% HFIP, read-out: Aβ40 aggr IC50
T4 construct: samples of Aβ40 (30 μM) were coincubated for 2 h at 25 °C with test molecules; purchased EzBiolab, Carmel, IN, USA
Description: In vitro inhibition of Aβ40 aggregation was assessed following a previously reported thioflavin T (ThT) fluorescence-based method involving the use of hexafluoroisopropanol (HFIP) as aggregation enhancer. […].
In vitro inhibition assay of Aβ40 aggregation has been previously reported[41] and adapted to a 96-well plate platform.
(§1) After incubation in 96-well black, nonbinding microplates (Greiner Bio-One GmbH, Frickenhausen, Germany), thioflavin T (25 μM) was added and fluorimetric reads (ex 440, em 485 nm) were performed in a multiplate reader Infinite M1000 Pro (Tecan, Cernusco sul Naviglio, Italy). Experiments were run in triplicate. Results were expressed by statistical analysis while IC50 values were obtained by nonlinear regression using Prism software (GraphPad Prism version 5.00 for Windows, GraphPad Software, San Diego, CA, USA).

[3] = biological target: T5, esBChE (BChE from equine serum) (Equus caballus, UniProt P81908); assay: biochemical; conditions: mean ± SEM, n = 3
T5 construct: BChE from horse serum (13 U/mL); purchased Sigma-Aldrich, Milan, Italy; host or cells: horse serum

in vitro = conditions: PAMPA, pH 7.4
BChE = tested on: BChE; set-up: method as in PMID 25924599; conditions: first series; cited from earlier work
AChE = tested on: AChE; set-up: method as in PMID 25924599; conditions: first series; cited from earlier work
Aβ42 = biological target: T6, Aβ42 (Homo sapiens, UniProt P05067); assay: Inhibition of Aβ42 fibrillation by ThT fluorescence assay; format: biochemical; conditions: 100 and 5 μM, Aβ42 30 μM, 37 °C, 48 h
T6 construct: purchased EzBiolab, Carmel, IN, USA
Description: Its high propensity to self-aggregate allows a fast execution of aggregation assays without the need of aggregation enhancers as for Aβ40.
Quercetin (QUR) was used as reference compound.
as §1

MAO B [4] = biological target: T3, MAO B; assay: MAO B kynuramine assay in spectrophotometric mode (4-hydroxyquinoline absorbance at 316 nm), incl. time course; format: biochemical; conditions: 100 nM inhibitor
cerebellar granule cells = assay: In vitro cytotoxicity (MTT); format: cell-based; conditions: CGCs, compound 10 μM, 48 h, mean ± SEM
Description: . […] For a more meaningful assessment of the value of the present compounds, the issue of their toxicity, in comparison to established drugs for AD, should deserve further investigation.
Cerebellar granule cells were prepared from 8-day-old Sprague Dawley rats as described previously.[66] Cells were studied from the 6th to the 12th day in vitro. The experimental procedures and care of the animals were performed in compliance with the Directive of the EU Parliament and Council of September 22, 2010 (2010/63/EU) and were approved by the Italian Ministry of Health (COD. 75F11.N.6DX) in accordance with D.M. 116/1992. All efforts were made in order to minimize animal suffering and the number of animals necessary to obtain reliable results.
[…]. Cells were maintained in 5% CO2 at 37 °C. The cell viability was assessed by the MTT assay 48 h after the treatment. […]. The survival rates of viable cells were calculated by comparing the optical absorbance of treated samples with that of the untreated controls. All experiments were repeated at least three times independently, and data are expressed as the mean ± SEM.

[5] = based on the PAMPA-BBB classification range from Di et al.

T2 sequence (O42275 24-633): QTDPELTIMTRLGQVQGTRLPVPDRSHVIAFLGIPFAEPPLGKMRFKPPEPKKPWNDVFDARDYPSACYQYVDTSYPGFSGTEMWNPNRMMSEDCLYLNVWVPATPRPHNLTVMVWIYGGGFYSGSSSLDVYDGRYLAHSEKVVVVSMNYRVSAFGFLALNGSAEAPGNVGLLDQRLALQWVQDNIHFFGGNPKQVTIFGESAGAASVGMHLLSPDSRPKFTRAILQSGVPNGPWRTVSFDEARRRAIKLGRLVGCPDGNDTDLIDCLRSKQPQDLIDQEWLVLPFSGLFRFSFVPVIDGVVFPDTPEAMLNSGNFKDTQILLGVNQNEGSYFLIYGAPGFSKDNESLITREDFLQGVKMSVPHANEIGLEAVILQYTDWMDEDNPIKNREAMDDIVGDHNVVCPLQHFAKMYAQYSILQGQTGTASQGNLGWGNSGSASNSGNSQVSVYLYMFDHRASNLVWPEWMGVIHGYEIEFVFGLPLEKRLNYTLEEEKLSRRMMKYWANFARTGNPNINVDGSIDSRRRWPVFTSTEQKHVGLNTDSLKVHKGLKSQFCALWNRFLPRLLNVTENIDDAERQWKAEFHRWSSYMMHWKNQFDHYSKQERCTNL
T4 sequence (P05067 672-711 limits assumed): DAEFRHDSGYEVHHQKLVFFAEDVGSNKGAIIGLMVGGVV
T5 sequence (P81908 whole entry): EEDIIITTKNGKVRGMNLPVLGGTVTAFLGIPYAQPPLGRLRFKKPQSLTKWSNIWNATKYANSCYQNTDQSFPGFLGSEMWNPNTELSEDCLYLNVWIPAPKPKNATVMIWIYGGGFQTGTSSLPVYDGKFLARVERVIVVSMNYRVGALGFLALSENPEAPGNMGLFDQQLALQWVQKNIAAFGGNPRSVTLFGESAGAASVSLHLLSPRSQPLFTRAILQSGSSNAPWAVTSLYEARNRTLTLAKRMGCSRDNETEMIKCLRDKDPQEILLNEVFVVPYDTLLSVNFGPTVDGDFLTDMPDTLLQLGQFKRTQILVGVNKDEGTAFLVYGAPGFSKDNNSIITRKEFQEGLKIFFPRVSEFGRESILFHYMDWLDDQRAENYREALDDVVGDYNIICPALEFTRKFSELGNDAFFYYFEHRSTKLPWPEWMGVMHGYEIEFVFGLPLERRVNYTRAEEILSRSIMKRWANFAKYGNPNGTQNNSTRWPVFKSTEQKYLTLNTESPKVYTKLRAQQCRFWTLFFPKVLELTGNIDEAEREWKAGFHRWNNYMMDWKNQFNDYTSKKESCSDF
T6 sequence (P05067 672-713 limits assumed): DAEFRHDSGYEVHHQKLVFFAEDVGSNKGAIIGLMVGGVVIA

| SMILES | inhibition at 10 µM (hMAO A) | IC50 [1] | inhibition at 10 µM [3] | IC50 (Aβ40) | Papp at 16 h (in vitro) | also measured |
| --- | --- | --- | --- | --- | --- | --- |
| O=C1c2ccccc2C(=O)c2c(NCCc3c[nH]c4ccccc34)cccc21 [Compound 13, 1-{[2-(1H-Indol-3-yl)ethyl]amino}-9,10-anthraquinone] | 25% | 1.85 ± 0.04 µM | 17% | – | – | inhibition at 10 µM (MAO B [2]): 42%; inhibition at 100 µM (Aβ40): ~60% |
| O=C1C(Cl)=C(NC(Cc2c[nH]c3ccccc23)C(=O)O)C(=O)c2ccccc21 (centres unmarked) [Compound 9] | 22% | 11 ± 1 µM | 17% | 14 ± 2 µM | – | inhibition at 10 µM (MAO B [2]): 52% |
| O=C1C(Cl)=C(NC(Cc2ccccc2)C(=O)O)C(=O)c2ccccc21 (centres unmarked) [Compound 8] | 26% | 13 ± 2 µM | 14% | 17 ± 2 µM | 6.1 ± 0.4 ×10⁻⁶ cm/s | IC50 (MAO B [2]): 2700 ± 800 nM; CNS prediction [5]: CNS+ |
| O=C1c2ccccc2C(=O)c2c(SC[C@@H]3CCCN4CCCC[C@H]34)cccc21 [XIV] | – | – | – | – | – | IC50 (BChE): 3.4 µM; IC50 (AChE): 3800 nM |
| O=C1c2ccccc2C(=O)c2c(NCCn3nnc4ccccc43)cccc21 [Compound 14, 1-{[2-(1H-Benzotriazol-1-yl)ethyl]amino}-9,10-anthraquinone] | 53% | 8.1 ± 0.5 µM | – | 11 ± 2 µM | – | inhibition of Aβ42 aggregation (activity profile) (Aβ42): best activity profile; IC50 (MAO B [2]): 980 ± 140 nM; IC50 [3]: 3.4 ± 0.2 µM |
| CCn1cc(C(=O)O)c(=O)c2cc(F)c(N3CCNCC3)cc21 [Norfloxacin] | – | – | – | – | 0.3 ×10⁻⁶ cm/s | – |
| O=C1C(Cl)=C(NCCCC2CCCN3CCCCC23)C(=O)c2ccccc21 (centres unmarked) [VI] | – | – | – | – | – | IC50 (BChE): 12 µM; IC50 (AChE): 11 nM |
| O=C1C(Cl)=C(NCCCc2ccccc2)C(=O)c2ccccc21 [Compound 4, 2-Chloro-3-(phenylpropylamino)-1,4-naphthoquinone] | – | 3.5 ± 0.3 µM | 35% | 8.2 ± 0.3 µM | – | IC50 (hMAO A): 3 ± 0.2 µM; IC50 (MAO B [2]): 54 ± 1 nM |
| C#CCN(C)Cc1ccccc1 [pargyline, reference compound] | – | – | – | – | – | MAO B enzymatic activity in time course (MAO B [4]; 1 h preincubation with enzyme): completely inhibited; time until MAO B enzymatic activity came to saturation (MAO B [4]; no preincubation): about 1 h |
| CN(C)CCCN1c2ccccc2Sc2ccc(Cl)cc21 [Chlorpromazine] | – | – | – | – | 7.2 ×10⁻⁶ cm/s | – |
| O=C1C=C(NC[C@@H]2CCCN3CCCC[C@H]23)C(=O)c2ccccc21 [I] | – | – | – | – | – | IC50 (AChE): 5800 nM |
| O=C1C(Cl)=C(NCCn2cnc3ccccc32)C(=O)c2ccccc21 [Compound 6, 2-[2-(1H-Benzimidazol-1-yl)ethylamino]-3-chloro-1,4-naphthoquinone] | 23% | 6.8 ± 0.7 µM | 24% | 19 ± 4 µM | – | inhibition at 10 µM (MAO B [2]): 24% |
| O=C1c2ccccc2C(=O)c2c(NCCCSC[C@@H]3CCCN4CCCC[C@H]34)cccc21 [XII] | – | – | – | – | – | IC50 (BChE): 1.1 µM |
| O=C1C(Cl)=C(NCCn2nnc3ccccc32)C(=O)c2ccccc21 [Compound 7, 2-{[2-(1H-Benzotriazol-1-yl)ethy]amino}-3-chloro-1,4-naphthoquinone] | 21% | 1.7 ± 0.1 µM | 15% | 8.7 ± 0.4 µM | – | IC50 (MAO B [2]): 480 ± 80 nM |
| O=C1C(Cl)=C(NCCc2c[nH]c3ccccc23)C(=O)c2ccccc21 [Compound 5] | – | 8.7 ± 0.8 µM | 29% | 6.6 ± 0.1 µM | 14.3 ± 1.3 ×10⁻⁶ cm/s | IC50 (hMAO A): 5 ± 0.2 µM; IC50 (MAO B [2]): 110 ± 10 nM; CNS prediction [5]: CNS+; cell viability vs control (%) (cerebellar granule cells): 85 ± 14% |
| O=c1c(O)c(-c2ccc(O)c(O)c2)oc2cc(O)cc(O)c12 [quercetin, reference compound] | – | – | – | – | 0.14 ± 0.06 ×10⁻⁶ cm/s | CNS prediction (PAMPA): CNS- |
| O=C1c2ccccc2C(=O)c2c(NCc3ccccc3)cccc21 [Compound 10, 1-(Benzylamino)-9,10-anthraquinone] | – | 8.7 ± 0.5 µM | 24% | – | – | IC50 (hMAO A): 1.1 ± 0.3 µM; inhibition at 10 µM (MAO B [2]): 34%; inhibition at 100 µM (Aβ40): ~60% |
| O=C1c2ccccc2C(=O)c2c(NCCCc3ccccc3)cccc21 [Compound 12, 1-[(3-Phenylpropryl)amino]-9,10-anthraquinone] | 50% | 7.84 ± 0.03 µM | – | 1.9 ± 0.3 µM | 22 ± 1.9 ×10⁻⁶ cm/s | inhibition of Aβ42 aggregation (activity profile) (Aβ42): best activity profile; IC50 (MAO B [2]): 240 ± 50 nM; IC50 [3]: 8.2 ± 0.4 µM; CNS prediction [5]: CNS+; cell viability vs control (%) (cerebellar granule cells): 77 ± 12% |
| CN1C(C(=O)Nc2ccccn2)=C(O)c2ccccc2S1(=O)=O [Piroxicam] | – | – | – | – | – | Papp (in vitro): 1.6 ×10⁻⁶ cm/s |
| Clc1cccc(Cl)c1N=C1NCCN1 [Clonidine] | – | – | – | – | 5.6 ×10⁻⁶ cm/s | – |
| CC(=O)[C@H]1CC[C@H]2[C@@H]3CCC4=CC(=O)CC[C@]4(C)[C@H]3CC[C@]12C [Progesterone] | – | – | – | – | 11.7 ×10⁻⁶ cm/s | – |
| CCn1cc(C(=O)O)c(=O)c2cc(F)c(N3CCNC(C)C3)c(F)c21 (centres unmarked) [Lomefloxacin] | – | – | – | – | 1.5 ×10⁻⁶ cm/s | – |
| O=C1c2ccccc2C(=O)c2c(NCC[C@@H]3CCCN4CCCC[C@H]34)cccc21 [X] | – | – | – | – | – | IC50 (AChE): 840 nM |
| O=C1C(Cl)=C(Nc2ccccc2)C(=O)c2ccccc21 [Compound 1] | < 5% | – | 8% | – | – | inhibition at 10 µM ([1]; at 10 μM): 39%; inhibition at 10 µM (MAO B [2]): 22%; inhibition at 100 µM (Aβ40): ~60% |
| NCCc1ccc(O)c(O)c1 [Dopamine] | – | – | – | – | 0.6 ×10⁻⁶ cm/s | – |

Reference: paper PMC7880572 (ACS Chemical Neuroscience, 2021)
